{"source": "patent US5866574A", "about": "“Pancreatitis remedy” (Kyowa Hakko Kogyo Co., Ltd., priority 1997, dated 1999)", "key": {"[1]": {"tested_on": "murine cerulein pancreatitis", "experiment": "effects on murine cerulein pancreatitis (serum amylase, lipase, GPT)", "assay_type": "in vivo, murine (female BALB/C mice)", "settings": "mean±SEM", "protocol": "Test of the effects on murine cerulein pancreatitis\nExperiment was conducted in accordance with the method described in Digestive Diseases and Science, 37, 274-279 (1992). Female BALB/C mice weighing 17 to 24 g were fasted for 16 hours. Water was provided ad libitum. Acute pancreatitis was induced by the administration of seven intraperitoueally injections of cerulein (50 μg/kg) at hourly intervals. Blood was drawn from abdominal vein, 3, 6, and 9 hours after the first injection of cerulein in case of Compound 1, Compound 2 and compound 3, while in case of Compound 4, blood was drawn therefrom 7 hours after the first injection of cerulein. Blood samples were centrifuged at 4° C. and 3,000 rpm for 10 minutes, and serum was separated. Serum amylase (Amy), lipase (Lip), and glutamic pyruvic transaminase (GPT) activities were measured. For Compound 1, Compound 2 and Compound 3, serum Amy was assayed with AU500/550 specific reagent \"Katayama\" Amy test(Katayama Chemical Industry Co., Ltd.); for Compound 4, serum Amy was assayed with \"Rikitech P-AMY EPS\" of BM pancreas-related reagent series (Boehringer Mannheim K. K.). Serum GPT was assayed with \"Katayama\" GPT test (Katayama Chemical Industry, Co., Ltd.). Serum Lip was assayed with an auto-analyzer reagent \"Kyowa\" Determiner Lipase (Kyowa Medex, Co., Ltd.). Compound 1, Compound 2, and Compound 3 were suspended in 0.5% methyl cellulose, and […] before the first injection of cerulein, the resulting suspension was orally given at a dose of 10 ml/kg. The solvent (0.5% methyl cellulose) was similarly given to a control group. Compound 4 was dissolved in distilled water, which was adjusted to pH 2 with 0.1N HCl, and then the resulting solution was adjusted to pH 4.5 with 0.1N sodium hydroxide. Compound 4 was orally administered one hour before the first injection of cerulein. The solvent (distilled water for injections, after adjustment to pH 4.5 with 0.1N HCl) was similarly given to a control group.\nResults are expressed as means±SEM where appropriate. Difference between normal group and control group were evaluated using the Wilcoxon's rank sum test. And for differences between control group and test compound-treated group, the Steel's test was used for Compound 1 and the Wilcoxon's rank sum test was used for Compounds 2, Compound 3 and Compound 4.\nThe effects of Compound 1, Compound 2 and Compound 3 on serum Amy, serum Lip and serum GPT are shown in Tables 2, 3 and 4; and the effect of Compound 4 are shown in Table 5."}, "dd-strain male mice": {"tested_on": "dd-strain male mice", "experiment": "Acute Toxicity Test", "assay_type": "in vivo", "settings": "mortality seven days after administration", "excerpt": "Test compounds were orally or intraperitoneally administered to groups of dd-strain male mice weighing 20±1 g, each group consisting of three mice."}, "adenosine uptake": {"tested_on": "adenosine uptake", "settings": "Nucleosides & Nucleotides, 10, 975-982 (1991); cited from earlier work"}, "[2]": {"settings": "10 mg/kg oral, 3 h after the first injection of cerulein"}, "[3]": {"settings": "10 mg/kg oral, 6 h after the first injection of cerulein"}, "[4]": {"settings": "10 mg/kg oral, 9 h after the first injection of cerulein"}, "[5]": {"settings": "30 mg/kg oral, 3 h after the first injection of cerulein"}, "[6]": {"settings": "30 mg/kg oral, 6 h after the first injection of cerulein"}, "[7]": {"settings": "30 mg/kg oral, 9 h after the first injection of cerulein"}, "[8]": {"settings": "300 mg/kg oral, 3 h after the first injection of cerulein"}, "[9]": {"settings": "300 mg/kg oral, 6 h after the first injection of cerulein"}, "[10]": {"settings": "300 mg/kg oral, 9 h after the first injection of cerulein"}, "[11]": {"settings": "10 mg/kg oral, 7 hours after the first injection of cerulein"}}, "note": "Where a name gives a salt, the structure may show the parent alone."}
{"smiles": "CCOc1cc2nc(N3CCOCC3)nc(N3CCC(n4c(=O)c5cc(C)ccc5n(C)c4=O)CC3)c2cc1OCC", "note": "[Compound 1, 3-[1-(6,7-Diethoxy-2-morpholino-4-quinazolynyl)-4-piperidinyl]-1,2,3,4-tetrahydro-1,6-dimethyl-2,4-dioxoquinazoline hydrochloride salt]", "values": [{"measurement": "Serum GPT", "setting": "[1]; [2]", "value": "37 ± 3", "unit": "IU/L"}, {"measurement": "Serum amylase", "setting": "[1]; [2]", "value": "4283 ± 245", "unit": "IU/L"}, {"measurement": "Serum lipase", "setting": "[1]; [2]", "value": "55 ± 3", "unit": "IU/L"}, {"measurement": "Serum GPT", "setting": "[1]; [3]", "value": "50 ± 3", "unit": "IU/L"}, {"measurement": "Serum amylase", "setting": "[1]; [3]", "value": "4967 ± 167", "unit": "IU/L"}, {"measurement": "Serum lipase", "setting": "[1]; [3]", "value": "91 ± 22", "unit": "IU/L"}, {"measurement": "Serum GPT", "setting": "[1]; [4]", "value": "76 ± 5", "unit": "IU/L"}, {"measurement": "Serum amylase", "setting": "[1]; [4]", "value": "14817 ± 1459", "unit": "IU/L"}, {"measurement": "Serum lipase", "setting": "[1]; [4]", "value": "466 ± 74", "unit": "IU/L"}, {"measurement": "Serum GPT", "setting": "[1]; [5]", "value": "32 ± 3", "unit": "IU/L"}, {"measurement": "Serum amylase", "setting": "[1]; [5]", "value": "4133 ± 264", "unit": "IU/L"}, {"measurement": "Serum lipase", "setting": "[1]; [5]", "value": "58 ± 5", "unit": "IU/L"}, {"measurement": "Serum GPT", "setting": "[1]; [6]", "value": "51 ± 6", "unit": "IU/L"}, {"measurement": "Serum amylase", "setting": "[1]; [6]", "value": "5200 ± 274", "unit": "IU/L"}, {"measurement": "Serum lipase", "setting": "[1]; [6]", "value": "81 ± 8", "unit": "IU/L"}, {"measurement": "Serum GPT", "setting": "[1]; [7]", "value": "52 ± 5", "unit": "IU/L"}, {"measurement": "Serum amylase", "setting": "[1]; [7]", "value": "5658 ± 682", "unit": "IU/L"}, {"measurement": "Serum lipase", "setting": "[1]; [7]", "value": "95 ± 15", "unit": "IU/L"}, {"measurement": "minimum lethal dose (MLD)", "setting": "dd-strain male mice; intraperitoneal dosing", "value": "greater than 100 mg/kg"}, {"measurement": "minimum lethal dose (MLD)", "setting": "dd-strain male mice; oral dosing", "value": "greater than 1000 mg/kg"}]}
{"smiles": "NC(=O)C1CN(CCCCC(c2ccc(F)cc2)c2ccc(F)cc2)CCN1CC(=O)Nc1c(Cl)cc(N)cc1Cl", "note": "(stereo not drawn) [Compound 2, 2-Aminocarbonyl-N-(4-amino-2,6-dichlorophenyl)-4-[5,5-bis(4-fluorophenyl)pentyl]-1-piperazine acetamide]", "values": [{"measurement": "Serum GPT", "setting": "[1]; [8]", "value": "55 ± 2", "unit": "IU/L"}, {"measurement": "Serum amylase", "setting": "[1]; [8]", "value": "4967 ± 291", "unit": "IU/L"}, {"measurement": "Serum lipase", "setting": "[1]; [8]", "value": "238 ± 9", "unit": "IU/L"}, {"measurement": "Serum GPT", "setting": "[1]; [9]", "value": "59 ± 6", "unit": "IU/L"}, {"measurement": "Serum amylase", "setting": "[1]; [9]", "value": "4417 ± 305", "unit": "IU/L"}, {"measurement": "Serum lipase", "setting": "[1]; [9]", "value": "217 ± 51", "unit": "IU/L"}, {"measurement": "Serum GPT", "setting": "[1]; [10]", "value": "129 ± 23", "unit": "IU/L"}, {"measurement": "Serum amylase", "setting": "[1]; [10]", "value": "9517 ± 23", "unit": "IU/L"}, {"measurement": "Serum lipase", "setting": "[1]; [10]", "value": "726 ± 23", "unit": "IU/L"}, {"measurement": "minimum lethal dose (MLD)", "setting": "dd-strain male mice; intraperitoneal dosing", "value": "greater than 100 mg/kg"}, {"measurement": "minimum lethal dose (MLD)", "setting": "dd-strain male mice; oral dosing", "value": "greater than 300 mg/kg"}]}
{"smiles": "NC(=O)C1CN(Cc2nc(-c3ccccc3)c(-c3ccccc3)o2)CCN1CC(=O)Nc1c(Cl)cc([N+](=O)[O-])cc1Cl", "note": "(stereo not drawn) [Compound 3, 2-Aminocarbonyl-N-(2,6-dichloro-4-nitrophenyl)-4-[(4,5-diphenyl-2-oxazolyl)methyl]-1-piperazine acetamide . dihydrochloride salt]", "values": [{"measurement": "Serum GPT", "setting": "[1]; [5]", "value": "64 ± 11", "unit": "IU/L"}, {"measurement": "Serum amylase", "setting": "[1]; [5]", "value": "4050 ± 309", "unit": "IU/L"}, {"measurement": "Serum lipase", "setting": "[1]; [5]", "value": "243 ± 40", "unit": "IU/L"}, {"measurement": "Serum GPT", "setting": "[1]; [6]", "value": "40 ± 1", "unit": "IU/L"}, {"measurement": "Serum amylase", "setting": "[1]; [6]", "value": "3733 ± 149", "unit": "IU/L"}, {"measurement": "Serum lipase", "setting": "[1]; [6]", "value": "135 ± 6", "unit": "IU/L"}, {"measurement": "Serum GPT", "setting": "[1]; [7]", "value": "59 ± 7", "unit": "IU/L"}, {"measurement": "Serum amylase", "setting": "[1]; [7]", "value": "3958 ± 146", "unit": "IU/L"}, {"measurement": "Serum lipase", "setting": "[1]; [7]", "value": "200± 13", "unit": "IU/L"}]}
{"smiles": "CCOc1cc2c(N3CCC(n4c(=O)c5cc(C)ccc5n(C)c4=O)CC3)nc(N3CCOCC3)nc2cc1OCCO", "note": "[Compound 4, 3-[1-[6-ethoxy-7-(2-hidroxyethyl)oxy-2-morpholino-4-quinazolynyl]-4-piperidinyl]-1,2,3,4-tetrahydro-1,6-dimethyl-2,4-dioxoquinazoline]", "values": [{"measurement": "Serum Amirase", "setting": "[1]; 10 mg/kg oral, 7 hours after the first injection of cerulein, P-AMY assay", "value": "14690 ± 922", "unit": "IU/l"}, {"measurement": "Serum GPT", "setting": "[1]; [11]", "value": "67 ± 2", "unit": "IU/l"}, {"measurement": "Serum lipase", "setting": "[1]; [11]", "value": "195 ± 23", "unit": "IU/l"}]}
{"smiles": "NC(=O)C1CN(CCCCC(c2ccc(F)cc2)c2ccc(F)cc2)CCN1CC(=O)Nc1c(Cl)cc(N)cc1Cl", "note": "(stereo not drawn) [Compound R75231]", "values": [{"measurement": "action of inhibiting adenosine uptake", "setting": "adenosine uptake", "value": "have an action of inhibiting adenosine uptake"}]}
{"smiles": "COc1cc(C(=O)OCCCN2CCCN(CCCOC(=O)c3cc(OC)c(OC)c(OC)c3)CC2)cc(OC)c1OC", "note": "[dilazep]", "values": [{"measurement": "action of inhibiting adenosine uptake", "setting": "adenosine uptake", "value": "have an action of inhibiting adenosine uptake"}]}
{"smiles": "OCCN(CCO)c1nc(N2CCCCC2)c2nc(N(CCO)CCO)nc(N3CCCCC3)c2n1", "note": "[dipyridamole]", "values": [{"measurement": "action of inhibiting adenosine uptake", "setting": "adenosine uptake", "value": "have an action of inhibiting adenosine uptake"}]}
{"smiles": "COc1cc(C(=O)OCCCN(C)CCN(C)CCCOC(=O)c2cc(OC)c(OC)c(OC)c2)cc(OC)c1OC", "note": "[hexobendine]", "values": [{"measurement": "action of inhibiting adenosine uptake", "setting": "adenosine uptake", "value": "have an action of inhibiting adenosine uptake"}]}
{"smiles": "Cc1cccc(C)c1NC(=O)CN1CCN(CCCC(c2ccc(F)cc2)c2ccc(F)cc2)CC1", "note": "[lidoflazine]", "values": [{"measurement": "action of inhibiting adenosine uptake", "setting": "adenosine uptake", "value": "have an action of inhibiting adenosine uptake"}]}
